Data: ChEMBL document CHEMBL1201862, “PubChem BioAssay data set” (2004)
Active and inactive are the calls of the source.

Columns and labels:
HeLa = experiment: HeLa cell cytotoxicity, dose response, cytotoxicity control for MITF activator project, CellTiter-Glo luminescence, cherry-pick samples (AID 540259); format: functional, cell-based; settings: Homo sapiens
[1] = biological target: T1, Corticotropin-releasing factor receptor 2/Corticotropin-releasing factor-binding protein (Homo sapiens, UniProt P24387+Q13324); experiment: activators of CRF receptor 2 with binding protein – uHTS hits, confirmation (AID 602473); format: functional; settings: read-out: EC50_Mean
T1 sequence (Q13324 whole entry): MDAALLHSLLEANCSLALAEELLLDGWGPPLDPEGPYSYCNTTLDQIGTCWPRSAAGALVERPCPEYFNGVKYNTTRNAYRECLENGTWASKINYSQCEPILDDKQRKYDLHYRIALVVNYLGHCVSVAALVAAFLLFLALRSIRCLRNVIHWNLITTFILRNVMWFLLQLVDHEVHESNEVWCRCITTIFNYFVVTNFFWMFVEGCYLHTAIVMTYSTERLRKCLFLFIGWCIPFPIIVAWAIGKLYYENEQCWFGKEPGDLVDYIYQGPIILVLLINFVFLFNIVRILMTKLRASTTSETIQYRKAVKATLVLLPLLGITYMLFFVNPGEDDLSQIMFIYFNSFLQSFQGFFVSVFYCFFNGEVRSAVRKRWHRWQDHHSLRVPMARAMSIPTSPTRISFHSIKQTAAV
T1 sequence (P24387 whole entry): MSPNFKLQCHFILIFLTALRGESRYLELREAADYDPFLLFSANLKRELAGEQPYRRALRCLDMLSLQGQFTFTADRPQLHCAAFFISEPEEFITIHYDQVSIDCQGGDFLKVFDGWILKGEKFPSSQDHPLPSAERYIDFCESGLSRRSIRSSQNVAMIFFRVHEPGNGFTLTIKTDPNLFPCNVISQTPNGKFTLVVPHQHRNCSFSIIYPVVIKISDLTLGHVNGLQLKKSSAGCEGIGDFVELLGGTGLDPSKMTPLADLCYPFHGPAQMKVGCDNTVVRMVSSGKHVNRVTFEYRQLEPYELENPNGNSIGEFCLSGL

[2] = biological target: UDP-galactopyranose mutase (Mycobacterium tuberculosis, UniProt P9WIQ1); experiment: Inhibitors of Mycobacterium tuberculosis UDP-galactopyranose mutase (UGM) enzyme Measured in Biochemical System Using Plate Reader - 2105-02_Inhibitor_Dose_CherryPick_Activity. [Related pubchem assays (depositor defined):AID504439]
[3] = biological target: Glucose-6-phosphate 1-dehydrogenase (Homo sapiens, UniProt P11413); experiment: human G6PD enzyme inhibitors, dose response, selectivity assay for P. falciparum G6PD inhibitor project, biochemical, fluorescence (AID 504792); format: functional
Escherichia coli = experiment: microbe, parasite or virus in culture

Chain of UDP-galactopyranose mutase (P9WIQ1 whole entry): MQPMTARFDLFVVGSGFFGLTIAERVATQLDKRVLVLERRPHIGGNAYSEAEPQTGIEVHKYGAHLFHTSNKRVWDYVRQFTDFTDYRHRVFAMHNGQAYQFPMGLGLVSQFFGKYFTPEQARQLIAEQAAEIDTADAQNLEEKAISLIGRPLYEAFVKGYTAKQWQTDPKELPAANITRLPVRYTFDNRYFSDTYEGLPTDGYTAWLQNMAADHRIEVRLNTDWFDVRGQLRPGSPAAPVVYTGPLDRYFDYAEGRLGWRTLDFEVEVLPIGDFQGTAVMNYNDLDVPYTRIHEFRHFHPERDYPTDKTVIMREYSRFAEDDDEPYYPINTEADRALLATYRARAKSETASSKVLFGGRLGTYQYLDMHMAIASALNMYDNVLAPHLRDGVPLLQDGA
Chain of Glucose-6-phosphate 1-dehydrogenase (P11413 whole entry): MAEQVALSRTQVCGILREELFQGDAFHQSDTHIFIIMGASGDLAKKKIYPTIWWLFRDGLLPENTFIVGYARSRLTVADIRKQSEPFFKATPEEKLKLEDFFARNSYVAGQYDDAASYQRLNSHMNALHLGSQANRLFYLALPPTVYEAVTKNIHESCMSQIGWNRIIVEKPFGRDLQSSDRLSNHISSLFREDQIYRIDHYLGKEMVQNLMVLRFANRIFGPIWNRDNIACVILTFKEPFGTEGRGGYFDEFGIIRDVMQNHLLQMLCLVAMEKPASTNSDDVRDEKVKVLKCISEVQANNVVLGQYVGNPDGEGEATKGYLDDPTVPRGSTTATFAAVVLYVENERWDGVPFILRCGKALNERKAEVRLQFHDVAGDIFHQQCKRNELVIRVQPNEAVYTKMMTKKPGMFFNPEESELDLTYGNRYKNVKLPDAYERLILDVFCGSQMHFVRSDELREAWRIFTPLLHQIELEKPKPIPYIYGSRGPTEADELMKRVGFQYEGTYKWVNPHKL

For `COc1ccc(OCc2cc(C(=O)NC(C)c3cnn(C)c3)no2)c(Cl)c1` (stereo unspecified), the AC50 (HeLa) was 79.6 µM (active).

In the case of `N#C/C(=C\C=C\c1ccccc1)c1nc(-c2ccc3c(c2)OCO3)cs1`, the EC50 [1] was 9.03 µM (active) and the AC50 [2] was 38.5 µM (active).

`COc1cc(-c2nnc3n2N=C(c2ccccc2)CS3)cc(OC)c1OC` was tested, and the IC50 [3] was > 80 µM (inactive).

With `O=C(c1cnn2ccccc12)N1CCc2ccccc21` the AC50 (HeLa) was 58.6 µM (active).

`COc1ccccc1NC(=S)NC(=O)C(C)C` was tested, and the AC50 (Escherichia coli) was 50.3 µM (active).
